Assays:
[1] = system: Amaranthus retroflexus, Abutilon theophrasti, Alopecurus myosuroides, Avena fatua, Brassica rapa and Echinochloa crus-galli; assay: Pre-emergence and post-emergence effect on weeds; type: in vivo; details: 500 g/ha or less; pre- or post-emergence application; one or more of the weed species; two weeks after treatment
Excerpt: Pre-Emergence Effect on Weeds Seed of various broad-leaf and grass weed species were sown and compound of formula (I), dissolved in a mixture of acetone and water, was applied at a rate of 500 g/ha or less to the soil surface. The weed species used were Amaranthus retroflexus, Abutilon theophrasti, Alopecurus myosuroides, Avena fatua, Brassica rapa and Echinochloa crus-galli. Post-Emergence Effect on Weeds Seed of the weed species Amaranthus retroflexus, Abutilon theophrasti, Alopecurus myosuroides, Avena fatua, Brassica rapa and Echinochloa crus-galli were sown in soil and grown up to a 1-3 leaves stage. A post-emergence application of compound of formula (I), dissolved in a mixture of acetone and water, was applied at a rate of 500 g/ha or less. Two weeks after treatment in the above test methods, weed control was assessed as a percentage reduction in plant growth, in comparison with untreated control.

Row | SMILES | melting point [°C] | herbicidal activity (weed control assessed as percentage reduction in plant growth in comparison with untreated control) [1]
1 | N#Cc1cc(C#N)cc(Oc2cccc(Oc3ccnc(Cl)n3)c2)c1 [Compound 1, 5-[3-(2-chloropyrimidin-4-yloxy)phenoxy]isophthalonitrile] |  | very good herbicidal activity
2 | N#Cc1cc(C#N)cc(Oc2ccnc(Oc3cc(Cl)cc(Cl)c3)n2)c1 [Compound 84, 5-[2-(3,5-dichlorophenoxy)pyrimidin-4-yloxy]isophthalonitrile] | 196 | 
3 | N#Cc1cccc(Oc2cc(C#N)cc(C#N)c2)c1 [Compound 42, 5-(3-cyanophenoxy)isophthalonitrile] |  | very good herbicidal activity
4 | N#Cc1cc(C#N)cc(Oc2cccc(OC(F)(F)C(F)F)c2)c1 [Compound 44, 5-(3-[1,1,2,2-tetrafluoroethoxy]phenoxy)isophthalonitrile] |  | very good herbicidal activity

Now from value to compound, other results behind:

Row | melting point [°C] | SMILES | herbicidal activity (weed control assessed as percentage reduction in plant growth in comparison with untreated control) [1]
5 | 143 | N#Cc1cc(C#N)cc(Oc2cccc(O)c2)c1 [Compound 49, 5-(3-hydroxyphenoxy)isophthalonitrile] | 
6 | 156 | N#Cc1cc(C#N)cc(Oc2nccc(Oc3cc(Cl)cc(Cl)c3)n2)c1 [Compound 83, 5-[4-(3,5-dichlorophenoxy)pyrimidin-2-yloxy] isophthalonitrile] | 
7 | 212 to 213 | N#Cc1cc(C#N)cc(Oc2cccc(Oc3cc(C#N)cc(C#N)c3)c2)c1 [Compound 90, 5-[3-(3,5-dicyanophenoxy)phenoxy]isophthalonitrile] | 

Source: patent US20030181334A1, “Herbicidal method” (priority 2001, published 2003)
